Test results reported in patent publication US20070270459A1, “Overactive bladder treating drug” (ASTELLAS PHARMA INC., priority 2002, published 2007).
Structures can show the parent of a compound that is named as a salt.

Tested on: overactive bladder model rat
Assay: Cystometry under nonanesthesized condition in overactive bladder model (BOO) rats
Assay type: in vivo
Text: (1) Preparation of Overactive Bladder Model Rats
Wistar female rats (6 to 7 weeks old) were employed for the preparation. A catheter was inserted into the urinary bladder through the external urethral orifice under anesthesia with sodium pentobarbital in rats. After subjecting the abdominal region to the median section, the proximal urethra was ligated together with the catheter at 2 sites by a silk blade (5-0), and the catheter was removed.
(2) Cystometry Under Nonanesthesized Condition
At more than 6 weeks after surgery, the silk blade used for ligation of the urethra was removed under anesthesia with sodium pentobarbital. A catheter for infusion of physiological saline and for the measurement of the intravesical pressure was inserted into the urinary bladder through the top part of the urinary bladder and fixed. A catheter for administration of a drug was inserted into the jugular vein, and the rat was returned to a housing cage after recovery. At 2 days after surgery, the catheter inserted into the urinary bladder was connected to a syringe pump for continuous infusion of physiological saline (7-20 mL/hr) to induce the micturition reflex and to a pressure transducer to measure the intravesical pressure with a three way stopcock. After the micturition reflex was stabilized, physiological saline or a drug was administered through the catheter for administration of a drug inserted into the jugular vein.
As the parameters evaluated, the frequency of contraction before micturition (the number of contractions for 10 min before starting of micturition), contraction pressure (mean contraction pressure for 10 min before starting of micturition), micturition pressure and interval of micturition were employed for the present test. The effect of a drug was evaluated on the basis of the inhibition ratio against the pre-dosing values (prolongation ratio in the micturition interval).
Tamsulosin hydrochloride was administered intravenously in increasing the doses at a common ratio of about 3 (1, 3 and 10 μg/kg). The action of tamsulosin hydrochloride (3 μg/kg) in combination with Solifenacin succinate (3 mg/kg) on each parameter was also evaluated.
Each test was performed at n=5, and the results are expressed as mean±standard error. Student's t-test and Tukey's test were used for comparison between 2 groups and among multiple groups, respectively.

Compound	interval of micturition, prolongation ratio (3 mg/kg i.v., alone)	interval of micturition, prolongation ratio (3 μg/kg i.v., alone)	micturition pressure (10 μg/kg intravenous)	interval of micturition, prolongation ratio (10 μg/kg intravenous, vs pre-dosing value)	frequency of contraction before micturition (number of contractions for 10 min before starting of micturition) (tamsulosin hydrochloride 1, 3 and 10 μg/kg intravenous, vs pre-dosing values, n=5, FIG. 1A)	contraction pressure before micturition (mean contraction pressure for 10 min before starting of micturition) (tamsulosin hydrochloride 1, 3 and 10 μg/kg intravenous, vs pre-dosing values, n=5, FIG. 1B)	micturition pressure (tamsulosin hydrochloride alone, comparison arm of the combination test (3 μg/kg i.v.))
O=C(O[C@H]1CN2CCC1CC2)N1CCc2ccccc2[C@@H]1c1ccccc1 [solifenacin succinate, (+)-(1S,3′R)-quinuclidin-3′-yl 1-phenyl-1,2,3,4-tetrahydroisoquinoline-2-carboxylate]	2.6%						
CCOc1ccccc1OCCN[C@H](C)Cc1ccc(OC)c(S(N)(=O)=O)c1 [tamsulosin hydrochloride, (R)(−)-5-[2-[[2-(o-ethoxyphenoxy)ethyl]amino]propyl]-2-methoxybenzene-sulfonamide]		2.1%	no influence	9.2%	inhibited in a dose-dependent manner	inhibited in a dose-dependent manner	no effect
